Assay results reported in patent EP3390415B1, “(R)- AND (S)-1-(3-(3-N,N-DIMETHYLAMINOCARBONYL)PHENOXYL-4-NITROPHENYL)-1-ETHYL-N,N'-BIS (ETHYLENE)PHOSPHORAMIDATE, COMPOSITIONS AND METHODS FOR THEIR USE AND PREPARATION” (OBI PHARMA, INC., priority 2015, dated 2017).
pIC50: −log10 of the molar value. Where two headings read alike, the source gives them in different places.

Key:
Assay in all cases: In vitro human tumor cell line cytotoxicity assay
Type in all cases: cell-based
LIXC012 = settings: for pIC50: Homo sapiens
T.T = settings: TT, read-out: RelIC50
Jurkat, Clone E6-1 = settings: read-out: RelIC50
KYSE 70 = settings: read-out: RelIC50
OE 21 = settings: OE21, read-out: RelIC50
KG-1 = settings: read-out: RelIC50
Jurkat = settings: read-out: RelIC50
TE-4 = settings: read-out: RelIC50
KYSE 180 = settings: read-out: RelIC50
SNU-387 = settings: for pIC50: Homo sapiens
TF-1 = settings: read-out: RelIC50
HEL = settings: read-out: RelIC50
HepG2 = settings: for pIC50: Homo sapiens
NOMO-1 = settings: read-out: RelIC50
PLCPRF5 = settings: for pIC50: Homo sapiens
COLO680N = settings: COLO-680N, read-out: RelIC50
TE-6 = settings: read-out: RelIC50
C3A = settings: for pIC50: Homo sapiens
TE-8 = settings: read-out: RelIC50
PF-382 = settings: read-out: RelIC50
Method: (§1) TH 2870, TH 3423 and TH 3424 was also tested in different cancer cell lines using the materials and procedures as follows. 10* cell lysate buffer (cell signaling technology, Cat. No.9803); Protease Inhibitor Cocktail for Mammalian Tissues (Sigma, Cat. No.P8340); Phosphatase Inhibitor Cocktails for Serine/Threonine Phosphatases and L-Isozymes of Alkaline Phosphatases (Sigma, Cat. No.P0044); Phosphatase Inhibitor Cocktails for Tyrosine Protein Phosphatases, Acid and Alkaline Phosphatases (Sigma, Cat. No.P5726); BCA kit (Thermo, Cat. No.23225); Primary antibody, mouse monoclonal AKR1C3 antibody (clone NP6.G6.A6; Sigma-Aldrich); Primary antibody, α-tubulin (clone B-5-1-2; Sigma-Aldrich); Secondary antibody, Goat-anti-Mouse IgG HRP conjugated (A4416; Sigma-Aldrich) were used. Cells were passaged two generations in good condition and digested. The appropriate number of cells were inoculated in 6-cm cell culture dishes, and incubated at 37°C, 5% CO2 overnight. When the cells were grown to 80% density, the dish was removed from incubator. The medium was aspirated, washed twice with ice-cold PBS, and residual PBS was removed. An appropriate volume of ice-cold 1* cell lysate was added and incubated on ice for 10 minutes. Cell lysate was transferred to microfuge tubes chilled in ice, 4 °C, 12,000 rpm and centrifuged for 15 minutes. Supernatant was transferred into another microcentrifuge tube. Cell lysates were diluted by a 10* cell lysates, and add Protease Inhibitor Cocktail for Mammalian Tissues (Sigma, # P8340), Phosphatase Inhibitor Cocktails for Serine / Threonine Phosphatases and L-Isozymes of Alkaline Phosphatases, Phosphatase Inhibitor Cocktails for Tyrosine Protein Phosphatases, Acid and Alkaline Phosphatases. The BCA protein quantification kit for protein quantification was used with 1* cell lysate to dilute the cell lysate to the same concentration. Corresponding samples were added on 5* SDS-loading buffer, heated to 85 °C for 10 minutes, and centrifuged briefly. The samples were saved at -20 °C or used directly for protein electrophoresis. Those samples were electrophoresed according to standard practice, transferred to a membrane, the primary antibodies and then secondary antibody were applied according to the manufacturer's instructions. Odyssey infrared laser imaging system was used to scan signals.
(§2) The results are shown below in Figs. 3 and 4 and listed in the following tables: Table: TH 2870, TH 3423 and TH 3424 sensitivity in liver, prostate, esophageal cancer and leukemia cell lines

SUP-T1 = settings: read-out: RelIC50
Method: as §1, §2

HL-60 = settings: read-out: RelIC50
Method: as §1, §2

P116 = settings: read-out: RelIC50
Method: as §1, §2

TE-11 = settings: read-out: RelIC50
Method: as §1, §2

KYSE 510 = settings: read-out: RelIC50
Method: as §1, §2

Reh 3 = settings: read-out: RelIC50
Method: as §1, §2

OE 33 = settings: OE33, read-out: RelIC50
Method: as §1, §2

CCRF-CEM = settings: read-out: RelIC50
Method: as §1, §2

ATN-1 = settings: read-out: RelIC50
Method: as §1, §2

TE-15 = settings: read-out: RelIC50
Method: as §1, §2

TE-5 = settings: read-out: RelIC50
Method: as §1, §2

THP-1_ = settings: read-out: RelIC50
Method: as §1, §2

Mono-Mac-6_ = settings: read-out: RelIC50
Method: as §1, §2

HL-60 Clone = settings: read-out: RelIC50

## C[C@H](OP(=O)(N1CC1)N1CC1)c1ccc([N+](=O)[O-])c(Oc2cccc(C(=O)N(C)C)c2)c1 (single isomer, unassigned) [TH3424]
LIXC012
  Max Inhibition%: 82.8%
  Min Inhibition%: 4.1%
LIXC012; read-out: AbsIC50
  pIC50: 7.76
LIXC012; read-out: RelIC50
  pIC50: 7.95
T.T
  pIC50: 8.22
Jurkat, Clone E6-1
  pIC50: 7.62
KYSE 70
  pIC50: 7.48
OE 21
  pIC50: 8.28
KG-1
  pIC50: 7.82
Jurkat
  pIC50: 7.40
TE-4
  pIC50: 8.00
KYSE 180
  pIC50: 6.35
SNU-387
  Max Inhibition%: 99.3%
  Min Inhibition%: -14.8%
SNU-387; read-out: AbsIC50
  pIC50: 7.15
SNU-387; read-out: RelIC50
  pIC50: 7.23
TF-1
  pIC50: 7.55
HEL
  pIC50: 6.65
HepG2
  Max Inhibition%: 100.2%
  Min Inhibition%: 3.4%
HepG2; read-out: AbsIC50
  pIC50: 8.07
HepG2; read-out: RelIC50
  pIC50: 8.14
NOMO-1
  pIC50: 7.96
PLCPRF5
  Max Inhibition%: 85.2%
  Min Inhibition%: 1.4%
PLCPRF5; PLC-PRF-5, read-out: AbsIC50
  pIC50: 6.96
PLCPRF5; PLC-PRF-5, read-out: RelIC50
  pIC50: 6.89
COLO680N
  pIC50: 7.18
TE-6
  pIC50: 7.68
C3A
  Max Inhibition%: 98.7%
  Min Inhibition%: -2.1%
C3A; read-out: AbsIC50
  pIC50: 8.03
C3A; read-out: RelIC50
  pIC50: 8.39
TE-8
  pIC50: 7.72
PF-382
  pIC50: 7.82
SUP-T1
  pIC50: 8.52
HL-60
  pIC50: 8.52
P116
  pIC50: 7.08
TE-11
  pIC50: 8.57
KYSE 510
  pIC50: 6.74
Reh 3
  pIC50: 8.52
OE 33
  pIC50: 7.08
CCRF-CEM
  pIC50: 8.43
ATN-1
  pIC50: 7.53
TE-15
  pIC50: 8.54
TE-5
  pIC50: 7.48
THP-1_
  pIC50: < 6.00
Mono-Mac-6_
  pIC50: < 6.00
HL-60 Clone
  pIC50: 7.28
